System: HeLa cells
Test: High-throughput image-based multivariate phenotypic profiling (d-profiles) of the 100-compound compendium by fluorescence microscopy
Type: cell-based, human
Settings: for compound closest to first d-profile / compound closest to second d-profile: compounds with multiple d-profiles
Protocol: To illustrate the performance of the present multivariate approach, the disclosed methods were applied to a compendium of fluorescence microscopy images in which HeLa cells were treated with 100 compounds, dissolved in dimethyl sulfoxide (DMSO), over 13 threefold titrations as shown in FIGS. 5A and 5B. The compounds represented approximately 20 categories of activities as shown in the table of FIG. 6, selected to cover mechanisms of toxicity, signaling pathways, and therapeutic targets in cancer and other diseases. Compound effects were assayed in duplicate on 384-well plates, using four sets of multiplexed molecular markers (DNA-SC35-anillin; DNA-p53-cFos; DNA-p38-pERK; DNA-mirotubule-actin). On average, 2413±852 (mean±standard deviation) cells were captured per well, from 103,580 images per marker set, to yield a total of ˜37 million individual identified cells. Cells treated with DMSO alone were used as controls.
Although most of these features were derived from the measurements of individual markers, some features measured information from more than one marker (such as the spatial correlation between the intensities of two different markers).
Due to biological and experimental variability, the significance thresholds of classification accuracy at p=0.05 estimated on every plate were much higher than 50% (FIGS. 8A-D, lower panels, dashed lines), and occasionally could reach as high as 90%. Therefore, well-to-well variability, even within the control population, could be high and should not be ignored.
To simulate a drug screen for compounds of similar target to a known compound, a d-profile was selected to be the reference profile, while all other d-profiles from the compendium were used as blinded test profiles. Similarity scores between the reference profile and all other test profiles were computed and ranked. The test profiles that were most similar to the reference profile were selected as “drug candidates.”
For each reference profile, the performance in identifying test profiles was estimated with similar a target on each marker set by using prior target annotations as the “gold standard.” […] was used as the performance evaluation criterion (Methods). “On-target” effects were defined as d-profiles whose AUC values were significant (p<0.05), and all other d-profiles were defined as “off-target.” 73%, 40%, 67%, and 56% of the compounds with more than one d-profile and at least one on-target d-profile had at least one off-target d-profile on the DNA-SC35-anillin, DNA-p53-cFos, DNA-p38-pERK and DNA-MT-actin marker sets respectively. […] Thus, the present method can identify dose-dependent secondary or tertiary responses that were very different from the primary responses.
The compound category of a novel d-profile may be inferred by comparison to a collection of previously categorized reference d-profiles. […] Although all of these compounds are histone deacetylase inhibitors, oxamflatin, trichostatin, and scriptaid are hydroxamic acids having very different chemical structures than apicidin, a cyclic tetrapeptide. […] For a d-profile, an accurate prediction was made when its most similar d-profile was annotated to the same target category.

[1] = drug screening simulation against prior target annotations

`COc1cccc2c1C(=O)c1c(O)c3c(c(O)c1C2=O)C[C@@](O)(C(=O)CO)C[C@@H]3O[C@H]1C[C@H](N)[C@H](O)[C@H](C)O1` [doxorubixin] was tested, and the “number of features needed to detect compound effects after recursive feature removal” value (in each of the four marker sets) was “only a single feature”.
For `COC(=O)Nc1nc2ccc(C(=O)c3cccs3)cc2[nH]1` [nocadazale, Nocodazole], the “d-profile similarity to the group of microtubule stabilizing compounds (taxol second d-profile, epothilone B, griseofulvin)” value (category prediction) was “further away”.
For Oxamflatin, the “most similar d-profiles (category prediction)” value (DNA-p38-pERK marker set) was “most similar to trichostatin, scriptaid, and apicidin”.
In the case of `CC(=O)O[C@H]1C(=O)[C@@]2(C)[C@H]([C@H](OC(=O)c3ccccc3)[C@]3(O)C[C@H](OC(=O)[C@H](O)[C@@H](NC(=O)c4ccccc4)c4ccccc4)C(C)=C1C3(C)C)[C@]1(OC(C)=O)CO[C@@H]1C[C@@H]2O` [taxol, Taxol], the number of d-profiles (across all four marker sets, 13 threefold titrations) is reported as 2, the “compound closest to first d-profile” value (category prediction) is reported as “closest to sulindac sulfide” and the “compound closest to second d-profile” value (category prediction) is reported as “closest to epothilone B and griseofulvin”.
`NC(=O)NO` [hydroxy urea-2, hydroxy urea] was tested, and the “most similar d-profiles (category prediction)” value (DNA-p53-cFos marker set) was “most similar to aphidicolin and methotrexate”.
For `CC[C@@]1(O)C(=O)OCc2c1cc1n(c2=O)Cc2cc3ccccc3nc2-1` [Camptothecin], the “compound closest to first d-profile” value (category prediction) was “closest to another topoisomerase inhibitor, etoposide”, the “compound closest to second d-profile” value (category prediction) was “closest to a CDK inhibitor, alsterpullone” and the “off-target effects (d-profiles whose AUC not significant)” value [1] was “one off-target effect”. For the same compound, the “on-target effects (d-profiles whose AUC values were significant, p<0.05)” value [1] was “one on-target effect”.
